Assay results reported in patent publication US20090137577A1, “HETEROCYCLIC COMPOUNDS” (Pfizer Inc., priority 2007, published 2009).

biological target: T1, mGluR2 receptor (metabotropic glutamate receptor 2) (Homo sapiens, UniProt Q14416); test: mGluR2 potentiator screen (FLIPR, EC10-EC20 glutamate challenge); assay type: cell-based; settings: geometric mean; read-out: mGluR 2 EC50 (geometric mean);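 further: HEK cells stably expressing human mGluR2 with GL15 G protein, Fluo-4 calcium fluorescence read on FLIPR, compounds added before an EC10-EC20 glutamate challenge to detect potentiation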
T1 construct: expressed in transfected cells
T1 sequence (Q14416 19-872, species assumed): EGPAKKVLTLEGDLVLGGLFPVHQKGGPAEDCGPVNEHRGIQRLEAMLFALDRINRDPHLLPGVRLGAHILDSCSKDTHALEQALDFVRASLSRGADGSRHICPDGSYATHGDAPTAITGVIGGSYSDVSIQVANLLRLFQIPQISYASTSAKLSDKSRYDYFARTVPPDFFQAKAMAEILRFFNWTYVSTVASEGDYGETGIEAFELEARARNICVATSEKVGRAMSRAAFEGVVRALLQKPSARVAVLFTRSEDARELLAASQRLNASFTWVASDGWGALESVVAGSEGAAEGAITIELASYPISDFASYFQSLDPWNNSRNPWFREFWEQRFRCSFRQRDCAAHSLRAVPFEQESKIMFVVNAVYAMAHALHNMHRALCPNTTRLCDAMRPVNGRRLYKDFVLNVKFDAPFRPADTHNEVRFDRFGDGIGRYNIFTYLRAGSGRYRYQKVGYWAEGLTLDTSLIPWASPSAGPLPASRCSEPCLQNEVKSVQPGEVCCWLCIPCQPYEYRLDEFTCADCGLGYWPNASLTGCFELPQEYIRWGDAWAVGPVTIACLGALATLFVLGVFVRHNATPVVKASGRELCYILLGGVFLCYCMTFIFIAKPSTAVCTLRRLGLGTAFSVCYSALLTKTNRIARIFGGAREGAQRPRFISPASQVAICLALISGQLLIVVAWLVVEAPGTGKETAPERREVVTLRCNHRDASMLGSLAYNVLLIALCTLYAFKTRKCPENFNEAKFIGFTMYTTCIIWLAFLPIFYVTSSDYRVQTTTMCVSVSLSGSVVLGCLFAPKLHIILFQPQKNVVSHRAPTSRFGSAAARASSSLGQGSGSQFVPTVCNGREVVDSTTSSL

Point of comparison: `COc1ccc(Cl)cc1-c1ccc(CN2C[C@@H](C)OC2=O)cc1` [Example 196], EC50 48.9 nM. Against it:
- CCC(CC)CN1CCN(Cc2ccc(OC(C)C3CCCCC3)cc2)C(=O)C1 (centres unmarked) [Example 217] — 19-fold higher, 947 nM
- CC(C)COc1ccc(CN2CC(C)(C)COC2=O)cc1 [Example 16] — 14-fold higher, 663 nM
- O=C1OC(c2ccccc2)CN1Cc1ccc(OCc2cccnc2)cc1 (centres unmarked) [Example 13] — 4.5-fold higher, 218 nM
- COc1ccc(Cl)cc1-c1ccc(CN2C[C@@H](C)OC2=O)cn1 [Example 266] — 11-fold higher, 562 nM
- Cc1cc(CN2C[C@@H](C)OC2=O)ccc1OCC1CCCCC1 [Example 254, (5R)-3-[4-(Cyclohexylmethoxy)-3-methylbenzyl]-5-methyl-1,3-oxazolidin-2-one] — within 1.5-fold, 71.2 nM
- O=C1OC(c2cccnc2)CN1Cc1ccc(-c2ccc(OC(F)(F)F)cc2F)cc1 (centres unmarked) [Example 303, 3-{[2′-Fluoro-4′-(trifluoromethoxy)biphenyl-4-yl]methyl}-5-pyridin-3-yl-1,3-oxazolidin-2-one] — 1.6-fold higher, 77.7 nM
- C[C@@H]1CN(Cc2ccc(-c3ccc(Cl)c(Cl)c3)nc2)C(=O)O1 [Example 261] — 2.4-fold higher, 116 nM
- COc1ccc(CCCOc2ccc(CN3CC(C)OC3=O)cc2)cc1 (centres unmarked) [Example 98] — 6.9-fold lower, 7.07 nM
- C[C@@H]1CN(Cc2ccc(-c3ccc(N4CCCC4)nc3)cc2)C(=O)O1 [Example 158] — 3.1-fold higher, 151 nM
- COc1ccc(F)c(F)c1-c1ccc(CN2C[C@@H](C)OC2=O)cc1 [Example 243] — lower, < 25.3 nM
- COc1ccc(F)c(F)c1-c1ccc(CN2C[C@@H](C)OC2=O)cn1 [Example 263] — 28-fold higher, 1370 nM
- CC1CN(Cc2ccc(OCc3ccccc3Cl)cc2)C(=O)O1 (centres unmarked) [Example 117] — within 1.5-fold, 34.5 nM
- Cc1c(COc2ccc(CN3CC(C)OC3=O)cc2)cnn1-c1ccccc1 (centres unmarked) [Example 128] — 12-fold higher, 595 nM
- CC(C)COc1ccc(CN2C(=O)OC[C@H]3CCCC[C@H]32)cc1 [Example 2] — 13-fold higher, 637 nM
- C[C@@H]1CN(Cc2ccc(-c3ccc(C(F)(F)F)cc3Cl)nc2)C(=O)O1 [Example 268] — 2.1-fold higher, 102 nM
- Cc1ccc(F)c(COc2ccc(CN3CC(C)OC3=O)cc2)c1 (centres unmarked) [Example 150] — 2.1-fold higher, 101 nM
- CC(Oc1ccc(CN2CCN(C(C)C)CC2=O)cc1)C1CCCCC1 (centres unmarked) [Example 201] — 16-fold higher, 763 nM
- C[C@H]1[C@@H](c2ccccc2)OC(=O)N1Cc1ccc(OCC2CCC2)cc1 [Example 24] — 13-fold higher, 660 nM
- CC1CN(Cc2ccc(OCc3cc(F)cc(F)c3)cc2)C(=O)O1 (centres unmarked) [Example 91] — 3.1-fold higher, 152 nM
- C[C@@H]1CN(Cc2ccc(-c3cccc4cnccc34)cc2)C(=O)O1 [Example 162] — within 1.5-fold, 42 nM
- C[C@@H]1CN(Cc2ccc(COc3ccc(F)cc3F)cc2)C(=O)O1 [Example 305, (5R)-3-{4-[(2,4-Difluorophenoxy)methyl]benzyl}-5-methyl-1,3-oxazolidin-2-one] — 8.5-fold higher, 416 nM
- COc1cc(COc2ccc(CN3CC(C)OC3=O)cc2)ccc1F (centres unmarked) [Example 127] — 34-fold higher, 1680 nM
- COc1ccc(-c2ccc(CN3C[C@@H](C)OC3=O)cc2F)c(F)c1F [Example 293] — not separable, < 59.9 nM
- Cc1cc(CN2C[C@@H](C)OC2=O)ccc1OCc1ccc(F)cc1C(F)(F)F [Example 285, (5R)-3-(4-{[4-fluoro-2-(trifluoromethyl)benzyl]oxy}-3-methylbenzyl)-5-methyl-1,3-oxazolidin-2-one] — 4.4-fold higher, 217 nM
- COc1cc(COc2ccc(CN3CC(C)OC3=O)cc2)ccc1C (centres unmarked) [Example 146] — 23-fold higher, 1110 nM
- CC[C@](COc1ccc(CN2CC(C)OC2=O)cc1)(c1ccccc1)N(C)C (some centres unmarked) [Example 145] — 27-fold higher, 1340 nM
- C[C@H]1[C@@H](c2ccccc2)OC(=O)N1Cc1ccc(OCc2ccccc2)cc1 [Example 29] — 9.6-fold higher, 467 nM
- C[C@@H]1CN(Cc2ccc(-c3ccc(Cl)cc3OC(F)(F)F)cc2)C(=O)O1 [Example 316] — within 1.5-fold, 50.4 nM
